Tests used:
surinam grass = assay: Test B pre/postemergence surinam grass; format: in vivo, Brachiaria decumbens
Method in brief: (§1)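 Response is a visual 0-to-10 score relative to untreated plants, where 0 means no effect and 10 means complete control, taken twelve to sixteen days after application. Treatments went onto soil at planting and onto foliage of 1- to 4-leaf plants, using a surfactant-containing non-phytotoxic solvent.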

crabgrass = assay: Test B pre/postemergence crabgrass; format: in vivo, Digitaria sanguinalis
Method in brief: as §1

pigweed = assay: Test B pre/postemergence pigweed; format: in vivo, Amaranthus retroflexus
Method in brief: as §1

soybean = assay: Test B pre/postemergence soybean; format: in vivo, Glycine max
Method in brief: as §1

sugar beet = assay: Test B pre/postemergence sugar beet; format: in vivo, Beta vulgaris
Method in brief: as §1

cocklebur = assay: Test B pre/postemergence cocklebur; format: in vivo, Xanthium strumarium
Method in brief: as §1

bamyardgrass = assay: Test B flood test barnyardgrass; format: in vivo, Echinochloa crus-galli
Method in brief: (§2)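 Plants were grown to the 2-leaf stage before treatment with test chemical, then held in a greenhouse for twelve to sixteen days. Injury was visually rated against untreated controls on a 0–10 scale, where 0 is no effect and 10 is complete control.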

giant foxtail = assay: Test B pre/postemergence giant foxtail; format: in vivo, Setaria faberii
Method in brief: as §1

smallflower flatsedge = assay: Test B flood test smallflower flatsedge; format: in vivo, Cyperus difformis
Method in brief: as §2

duck salad = assay: Test B flood test duck salad; format: in vivo, Heteranthera limosa
Method in brief: as §2

wheat = assay: Test B pre/postemergence wheat; format: in vivo, Triticum aestivum
Method in brief: as §1

wild oat = assay: Test B pre/postemergence wild oat; format: in vivo, Avena fatua
Method in brief: as §1

purple nutsedge = assay: Test B pre/postemergence purple nutsedge; format: in vivo, Cyperus rotundus
Method in brief: as §1

rape = assay: Test B pre/postemergence rape; format: in vivo, Brassica napus
Method in brief: as §1

corn = assay: Test B pre/postemergence corn; format: in vivo, Zea mays
Method in brief: as §1

velvetleaf = assay: Test B pre/postemergence velvetleaf; format: in vivo, Abutilon theophrasti
Method in brief: as §1

[1] = Postemergence, Rate 500 g/ha, scale of 0 to 10 where 0 is no effect and 10 is complete control
[2] = Preemergence, Rate 62 g/ha, scale of 0 to 10 where 0 is no effect and 10 is complete control
[3] = Preemergence, Rate 125 g/ha, scale of 0 to 10 where 0 is no effect and 10 is complete control
[4] = Preemergence, Rate 250 g/ha, scale 0 to 10, 0 is no effect, 10 is complete control
[5] = Preemergence, Rate 500 g/ha, scale 0 to 10, 0 is no effect, 10 is complete control
[6] = Rate 62 g/ha, Postemergence, scale 0 to 10 (0 no effect, 10 complete control)
[7] = Rate 125 g/ha, Postemergence, scale 0 to 10, 0 is no effect, 10 is complete control
[8] = Postemergence, Rate 250 g/ha, scale 0 to 10
[9] = Rate 62 g/ha, flood test species, Pre-emergence, visual evaluation after twelve to sixteen days
[10] = Rate 125 g/ha, under heading Pre-emergence, flood test species, visual evaluation after twelve to sixteen days
[11] = Rate 250 g/ha, Pre-emergence (flood test species), scale 0 to 10, 0 is no effect, 10 is complete control
[12] = Rate 500 g/ha, Pre-emergence, flood test species, scale 0 to 10 (0 no effect, 10 complete control)

SMILES: CC(C)N(C(=O)n1oc(=O)n(CNC(=O)c2ccccc2)c1=O)c1ccc(F)cc1 [Compound 445]
- B. signalgrass plant response rating (surinam grass; Postemergence, Rate 250 g/ha, scale 0 to 10, 0 no effect, 10 complete control): 0
- B. signalgrass plant response rating (surinam grass; [1]): 0
- Plant response rating, B. signalgrass (surinam grass; [2]): 0
- Plant response rating, B. signalgrass (surinam grass; [3]): 0
- B. signalgrass plant response rating (surinam grass; [4]): 2
- B. signalgrass plant response rating (surinam grass; [5]): 3
- B. signalgrass plant response rating (surinam grass; [6]): 0
- B. signalgrass plant response rating (surinam grass; [7]): 0
- Crabgrass plant response rating (crabgrass; [8]): 3
- Crabgrass plant response rating (crabgrass; [1]): 7
- Plant response rating, Crabgrass (crabgrass; [2]): 0
- Plant response rating, Crabgrass (crabgrass; [3]): 2
- Crabgrass plant response rating (crabgrass; [4]): 3
- Crabgrass plant response rating (crabgrass; [5]): 9
- Crabgrass plant response rating (crabgrass; [6]): 0
- Crabgrass plant response rating (crabgrass; [7]): 1
- Redroot pigweed plant response rating (pigweed; [1]): 4
- Plant response rating, Redroot pigweed (pigweed; [2]): 0
- Plant response rating, Redroot pigweed (pigweed; [3]): 2
- Redroot pigweed plant response rating (pigweed; [4]): 4
- Redroot pigweed plant response rating (pigweed; [5]): 10
- Redroot pigweed plant response rating (pigweed; [6]): 0
- Redroot pigweed plant response rating (pigweed; [7]): 0
- Soybean plant response rating (soybean; [8]): 1
- Soybean plant response rating (soybean; [1]): 2
- Plant response rating, Soybean (soybean; [2]): 0
- Plant response rating, Soybean (soybean; [3]): 0
- Soybean plant response rating (soybean; [5]): 0
- Soybean plant response rating (soybean; [6]): 1
- Soybean plant response rating (soybean; [7]): 1
- Sugarbeets plant response rating (sugar beet; [8]): 0
- Sugarbeets plant response rating (sugar beet; [1]): 0
- Plant response rating, Sugarbeets (sugar beet; [2]): 0
- Plant response rating, Sugarbeets (sugar beet; [3]): 0
- Sugarbeets plant response rating (sugar beet; [4]): 0
- Sugarbeets plant response rating (sugar beet; [5]): 0
- Sugarbeets plant response rating (sugar beet; [6]): 0
- Sugarbeets plant response rating (sugar beet; [7]): 0
- Cocklebur plant response rating (cocklebur; [8]): 2
- Cocklebur plant response rating (cocklebur; [1]): 2
- Plant response rating, Cocklebur (cocklebur; [2]): 0
- Plant response rating, Cocklebur (cocklebur; [3]): 0
- Cocklebur plant response rating (cocklebur; [4]): 0
- Cocklebur plant response rating (cocklebur; [6]): 0
- Cocklebur plant response rating (cocklebur; [7]): 2
- Plant response rating, Barnyardgrass (0 to 10 scale, 0 is no effect, 10 is complete control) (bamyardgrass; [9]): 0
- Barnyardgrass plant response rating (0 to 10 scale, 0 is no effect, 10 is complete control) (bamyardgrass; [10]): 0
- Barnyardgrass plant response rating (bamyardgrass; [11]): 0
- Barnyardgrass plant response rating (bamyardgrass; [12]): 0
- Giant foxtail plant response rating (giant foxtail; [8]): 1
- Giant foxtail plant response rating (giant foxtail; [1]): 2
- Plant response rating, Giant foxtail (giant foxtail; [2]): 0
- Plant response rating, Giant foxtail (giant foxtail; [3]): 0
- Giant foxtail plant response rating (giant foxtail; [4]): 5
- Giant foxtail plant response rating (giant foxtail; [5]): 9
- Giant foxtail plant response rating (giant foxtail; [6]): 0
- Giant foxtail plant response rating (giant foxtail; [7]): 0
- Plant response rating, S. Flatsedge (0 to 10 scale, 0 is no effect, 10 is complete control) (smallflower flatsedge; [9]): 0
- S. Flatsedge plant response rating (0 to 10 scale, 0 is no effect, 10 is complete control) (smallflower flatsedge; [10]): 0
- S. Flatsedge plant response rating (smallflower flatsedge; [11]): 0
- S. Flatsedge plant response rating (smallflower flatsedge; [12]): 0
- Plant response rating, Ducksalad (0 to 10 scale, 0 is no effect, 10 is complete control) (duck salad; [9]): 0
- Ducksalad plant response rating (0 to 10 scale, 0 is no effect, 10 is complete control) (duck salad; [10]): 0
- Ducksalad plant response rating (duck salad; [11]): 0
- Ducksalad plant response rating (duck salad; [12]): 0
- Wheat plant response rating (wheat; [8]): 0
- Wheat plant response rating (wheat; [1]): 0
- Plant response rating, Wheat (wheat; [2]): 0
- Plant response rating, Wheat (wheat; [3]): 0
- Wheat plant response rating (wheat; [4]): 0
- Wheat plant response rating (wheat; [5]): 0
- Wheat plant response rating (wheat; [6]): 0
- Wheat plant response rating (wheat; [7]): 0
- Wild oats plant response rating (wild oat; [8]): 0
- Wild oats plant response rating (wild oat; [1]): 0
- Plant response rating, Wild oats (wild oat; [2]): 0
- Plant response rating, Wild oats (wild oat; [3]): 0
- Wild oats plant response rating (wild oat; [4]): 0
- Wild oats plant response rating (wild oat; [5]): 0
- Wild oats plant response rating (wild oat; [6]): 0
- Wild oats plant response rating (wild oat; [7]): 0
- Nutsedge plant response rating (purple nutsedge; [8]): 0
- Nutsedge plant response rating (purple nutsedge; [1]): 0
- Plant response rating, Nutsedge (purple nutsedge; [2]): 0
- Plant response rating, Nutsedge (purple nutsedge; [3]): 0
- Nutsedge plant response rating (purple nutsedge; [4]): 0
- Nutsedge plant response rating (purple nutsedge; [5]): 0
- Nutsedge plant response rating (purple nutsedge; [6]): 0
- Nutsedge plant response rating (purple nutsedge; [7]): 0
- Rape plant response rating (rape; [8]): 2
- Rape plant response rating (rape; [1]): 2
- Plant response rating, Rape (rape; [2]): 0
- Plant response rating, Rape (rape; [3]): 0
- Rape plant response rating (rape; [4]): 0
- Rape plant response rating (rape; [5]): 2
- Rape plant response rating (rape; [6]): 0
- Rape plant response rating (rape; [7]): 0
- Corn plant response rating (corn; [8]): 0
- Corn plant response rating (corn; [1]): 0
- Plant response rating, Corn (corn; [2]): 0
- Plant response rating, Corn (corn; [3]): 0
- Corn plant response rating (corn; [4]): 0
- Corn plant response rating (corn; [5]): 0
- Corn plant response rating (corn; [6]): 0
- Corn plant response rating (corn; [7]): 0
- Velvetleaf plant response rating (velvetleaf; [8]): 3
- Velvetleaf plant response rating (velvetleaf; [1]): 5
- Plant response rating, Velvetleaf (velvetleaf; [2]): 0
- Plant response rating, Velvetleaf (velvetleaf; [3]): 0
- Velvetleaf plant response rating (velvetleaf; [4]): 2
- Velvetleaf plant response rating (velvetleaf; [5]): 3
- Velvetleaf plant response rating (velvetleaf; [6]): 0
- Velvetleaf plant response rating (velvetleaf; [7]): 2
